According to ChEMBL document CHEMBL5120871, “Identification of benzamides derivatives of norfloxacin as promising microRNA-21 inhibitors via repressing its transcription” (Bioorg Med Chem, 2022):
Calls of active or inactive are those of the source. No cut-off for these calls is given here.

What was measured:
[1] = tested on: microRNA 21; test: Inhibition of wild type full length miR-21 in human HeLa cells co-expressing firefly luciferase and renilla luciferase gene assessed as fold change in Luc/Rlu by measuring relative […] intensity at 20 uM by Dual-Luciferase reporter based luminometer analysis; format: cell-based
[2] = tested on: HeLa; test: Antiproliferative activity against human HeLa cells incubated for 24 hrs by CCK-8 assay; format: functional, cell-based
[3] = tested on: microRNA 21; test: Inhibition of miR-21 (unknown origin) maturation assessed as cleavage of pre-miR-21 at 5 uM by RT-qPCR analysis relative to control; format: nucleic-acid assay; conditions: Homo sapiens
[4] = tested on: HeLa; test: Inhibition of colony formation in human HeLa cells incubated for 14 days by crystal violet staining based assay; format: functional, cell-based; conditions: dose 0.1-10 µM, time 14.0 day, DDE = dose-dependent effect
[5] = tested on: HeLa; test: Induction of apoptosis in human HeLa cells assessed as viable cells at 10 uM incubated for 24 hrs by annexin V-FITC and propidium iodide staining based flow cytometry (reference value: 93.54%); format: functional; conditions: read-out: Activity
[6] = tested on: HeLa; test: Induction of apoptosis in human HeLa cells assessed as late apoptotic cells at 10 uM incubated for 24 hrs by annexin V-FITC and propidium iodide staining based flow cytometry (reference value: 2.03%); format: functional
[7] = tested on: HeLa; test: Induction of apoptosis in human HeLa cells assessed as necrotic cells at 10 uM incubated for 24 hrs by annexin V-FITC and propidium iodide staining based flow cytometry (reference value: 0.08%); format: functional
[8] = tested on: microRNA 21; test: Inhibition of wild type full length miR-21 in human HeLa cells co-expressing firefly luciferase and renilla luciferase gene assessed as fold change in Luc/Rlu by measuring relative […] intensity at 10 uM by Dual-Luciferase reporter based luminometer analysis; format: cell-based
[9] = tested on: microRNA 21; test: Inhibition of miR-21 in human HeLa cells assessed as reduction in mature miR-21 level at 10 to 20 uM measured after 24 hrs by RT-qPCR analysis; format: cell-based; conditions: dose 10-20 µM
[10] = tested on: microRNA 21; test: Inhibition of miR-21 in human HeLa cells assessed as downregulation of ATF4 level at 10 uM incubated for 48 hrs by RT-qPCR analysis; format: cell-based
[11] = tested on: HeLa; test: Induction of apoptosis in human HeLa cells assessed as early apoptotic cells at 10 uM incubated for 24 hrs by annexin V-FITC and propidium iodide staining based flow cytometry (reference value: 4.35%); format: functional
[12] = tested on: HCT-116; test: Inhibition of colony formation in human HCT-116 cells incubated for 14 days by crystal violet staining based assay; format: functional, cell-based; conditions: dose 0.1-10 µM, time 14.0 day, DDE = dose-dependent effect
[13] = Cytotoxicity against human BEAS-2B cells assessed as reduction in cell proliferation incubated for 24 hrs by CCK-8 assay; format: toxicity, cell-based
[14] = tested on: microRNA 21; test: Inhibition of miR-21 in human HeLa cells assessed as downregulation of pre-miR-21 level at 10 uM and measured for 24 to 48 hrs by RT-qPCR analysis; format: cell-based; conditions: time 24-48 hrs
[15] = tested on: microRNA 21; test: Inhibition of miR-21 in human HeLa cells assessed as downregulation of pri-miR-21 level at 10 uM and measured for 24 to 48 hrs by RT-qPCR analysis; format: cell-based; conditions: time 24-48 hrs
[16] = tested on: HeLa; test: Induction of apoptosis in human HeLa cells assessed as early apoptotic cells at 20 uM incubated for 24 hrs by annexin V-FITC and propidium iodide staining based flow cytometry (reference value: 4.35%); format: functional
[17] = tested on: microRNA 21; test: Inhibition of miR-21 in human HeLa cells assessed as upregulation of SLIT2 level at 10 uM incubated for 48 hrs by RT-qPCR analysis; format: cell-based
[18] = tested on: microRNA 21; test: Inhibition of miR-21 in human HeLa cells assessed as upregulation of EGR1 level at 10 uM incubated for 48 hrs by RT-qPCR analysis; format: cell-based
[19] = tested on: microRNA 21; test: Inhibition of miR-21 in human HeLa cells assessed as reduction in mature miR-21 level at 10 to 20 uM measured after 48 hrs by RT-qPCR analysis relative to control; format: cell-based; conditions: dose 10-20 µM
[20] = tested on: HeLa; test: Inhibition of cell migration in human HeLa cells at 10 to 20 uM and measured after 24 hrs by crystal violet staining based transwell migration assay; format: functional; conditions: dose 10-20 µM
[21] = tested on: HeLa; test: Induction of apoptosis in human HeLa cells assessed as late apoptotic cells at 20 uM incubated for 24 hrs by annexin V-FITC and propidium iodide staining based flow cytometry (reference value: 2.03%); format: functional
[22] = tested on: microRNA 21; test: Inhibition of miR-21 in human HeLa cells assessed as increase in PTEN level at 10 to 20 uM incubated for 48 hrs by RT-qPCR analysis; format: cell-based; conditions: dose 10-20 µM
[23] = tested on: HCT-116; test: Antiproliferative activity against human HCT-116 cells incubated for 24 hrs by CCK-8 assay; format: functional, cell-based; conditions: HCT-116, 24 h
[24] = tested on: HeLa; test: Induction of apoptosis in human HeLa cells assessed as necrotic cells at 20 uM incubated for 24 hrs by annexin V-FITC and propidium iodide staining based flow cytometry (reference value: 0.08%); format: functional
[25] = tested on: HeLa; test: Induction of apoptosis in human HeLa cells assessed as viable cells at 20 uM incubated for 24 hrs by annexin V-FITC and propidium iodide staining based flow cytometry (reference value: 93.54%); format: functional; conditions: read-out: Activity
[26] = tested on: microRNA 21; test: Inhibition of miR-21 in human HeLa cells assessed as downregulation of ZNF251 level at 10 uM incubated for 48 hrs by RT-qPCR analysis; format: cell-based
[27] = tested on: microRNA 21; test: Inhibition of miR-21 maturation in human MCF7 cells assessed as reduction in pre-miR-21 expression at 5 uM incubated for 48 hrs by RT-PCR analysis relative to control; format: cell-based
[28] = tested on: microRNA 21; test: Inhibition of miR-21 maturation in human LN-229 cells assessed as reduction in pre-miR-21 expression at 30 uM measured upto 24 hrs by RT-PCR analysis relative to control; format: cell-based
[29] = tested on: microRNA 21; test: Inhibition of miR-21 maturation in human SGC-7901 cells assessed as reduction in pre-miR-21 expression at 30 uM measured upto 24 hrs by RT-PCR analysis relative to control; format: cell-based
[30] = tested on: microRNA 21; test: Inhibition of miR-21 maturation in human U87 cells assessed as reduction in pre-miR-21 expression at 30 uM measured upto 24 hrs by RT-PCR analysis relative to control; format: cell-based
[31] = tested on: microRNA 21; test: Inhibition of miR-21 maturation in human MCF7 cells assessed as reduction in pre-miR-21 expression at 30 uM measured upto 24 hrs by RT-PCR analysis relative to control; format: cell-based
[32] = target: microRNA 21; test: Inhibition of miR-21 in human HeLa cells assessed as increase in luciferase activity measured after 48 hrs by bright Glo-luciferase reporter gene assay; format: cell-based

## C#CCNC(=O)c1ccc(NC(=O)c2cn(CC)c3cc(N4CCN(CC5CC5)CC4)c(F)cc3c2=O)cc1
[1]
  fold change (FC): 1.07

## C#CCNC(=O)c1ccc(NC(=O)c2cn(CC)c3cc(N4CCN(Cc5ccccc5)CC4)c(F)cc3c2=O)cc1
[1]
  fold change (FC): 1.47

## CCN(CC)CCNC(=O)c1ccc(NC(=O)c2cn(CC)c3cc(N4CCNCC4)c(F)cc3c2=O)cc1
[1]
  fold change (FC): 1.36

## CCn1cc(C(=O)NCCN2CCOCC2)c(=O)c2cc(F)c(N3CCNCC3)cc21
[1]
  fold change (FC): 0.57

## CCCCNC(=O)c1ccc(NC(=O)c2cn(CC)c3cc(N4CCNCC4)c(F)cc3c2=O)cc1
[1]
  fold change (FC): 0.98

## CCn1cc(C(=O)NCCN2CCCCC2)c(=O)c2cc(F)c(N3CCNCC3)cc21
[1]
  fold change (FC): 0.91

## CCn1cc(C(=O)Nc2ccc(C(=O)NC(C)C)cc2)c(=O)c2cc(F)c(N3CCNCC3)cc21
[2]
  IC50: > 100 µM
[1]
  fold change (FC): 1.8

## C#CCNC(=O)c1ccc(NC(=O)c2cn(CC)c3cc(N4CCNCC4)c(F)cc3c2=O)cc1
[1]
  fold change (FC): 1.15

## CCn1cc(C(=O)O)c(=O)c2cc(F)c(N3CCNCC3)cc21
[1]
  fold change (FC): 1.08

## C#CCNC(=O)c1ccc(NC(=O)c2ccccc2Br)cc1
[1]
  fold change (FC): 1.64

## NC[C@H]1O[C@H](O[C@H]2[C@H](O[C@@H]3O[C@H](CSCCNC(=O)CCCCCn4cc(COCCOc5ccc6c(c5)C(=O)N(O)C(=O)C6)nn4)[C@@H](O[C@H]4O[C@H](CN)[C@@H](O)[C@H](O)[C@H]4N)[C@H]3O)[C@@H](O)[C@H](N)C[C@@H]2N)[C@H](N)[C@@H](O)[C@@H]1O
[3]
  inhibition: 90%

## CCn1cc(C(=O)Nc2ccc(C(=O)NCCN3CCCCC3)cc2)c(=O)c2cc(F)c(N3CCNCC3)cc21
[4]
  inhibition: Dde
[5]
  viability at 10 µM: 91.8%
[6]
  Activity: 2.23%
[7]
  Activity: 0.24%
[8]
  fold change (FC): 1.42
[9]
  inhibition: Active
[10]
  inhibition: Active
[11]
  Activity: 5.74%
[12]
  inhibition: Dde
[13]
  IC50 at 24 h: > 100 µM
[14]
  inhibition: Active
[15]
  inhibition: Active
[16]
  Activity: 10.67%
[17]
  inhibition: Active
[18]
  inhibition: Active
[19]
  inhibition: Active
[20]
  Activity: Active
[21]
  Activity: 4.18%
[22]
  inhibition: Active
[2]
  IC50: 5.5 µM
[23]
  IC50: 2.8 µM
[24]
  Activity: 0.58%
[25]
  viability at 20 µM: 84.6%
[26]
  inhibition: Active
[1]
  fold change (FC): 2.01

## CN[C@@H]1[C@H](O[C@H]2[C@H](O[C@H]3[C@H](O)[C@@H](O)[C@H](N=C(N)N)[C@@H](O)[C@@H]3N=C(N)N)O[C@@H](C)[C@]2(O)C=O)O[C@@H](CO)[C@H](O)[C@H]1O
[27]
  inhibition: 80%
[1]
  fold change (FC): 1.1

## CCn1cc(C(=O)Nc2ccccc2)c(=O)c2cc(F)c(N3CCN(Cc4ccccc4)CC3)cc21
[1]
  fold change (FC): 1.24

## CCn1cc(C(=O)N2CCCCC2)c(=O)c2cc(F)c(N3CCN(Cc4ccccc4)CC3)cc21
[1]
  fold change (FC): 1.12

## CCn1cc(C(=O)Nc2ccc(C(=O)NCC(C)C)cc2)c(=O)c2cc(F)c(N3CCNCC3)cc21
[2]
  IC50: 13.2 µM
[1]
  fold change (FC): 1.92

## CCn1cc(C(=O)Nc2ccc(C(=O)NCC3CC3)cc2)c(=O)c2cc(F)c(N3CCNCC3)cc21
[1]
  fold change (FC): 0.72

## N#CC1CNC(N)NC1N (centres undefined)
[28]
  inhibition: 50%
[29]
  inhibition: 50%
[30]
  inhibition: 50%
[31]
  inhibition: 50%

## CCn1cc(C(=O)Nc2ccc(C(=O)NC3CCOCC3)cc2)c(=O)c2cc(F)c(N3CCNCC3)cc21
[1]
  fold change (FC): 0.69

## C#CCNC(=O)c1cn(CC)c2cc(N3CCN(Cc4ccccc4)CC3)c(F)cc2c1=O
[1]
  fold change (FC): 1

## C#CCNC(=O)c1ccc(/N=N/c2ccccc2)cc1
[32]
  EC50: 2 µM
[1]
  fold change (FC): 1.41

## C#CCNC(=O)c1ccc(NC(=O)c2cn(CC)c3cc(N4CCN(C(=O)CC56CC7CC(CC(C7)C5)C6)CC4)c(F)cc3c2=O)cc1
[1]
  fold change (FC): 0.98

## CC[C@@]1(O)C(=O)OCc2c1cc1n(c2=O)Cc2cc3cc(O)ccc3nc2-1 [HYDROXYCAMPTOTHECIN]
[2]
  IC50: 0.06 µM
[23]
  IC50: 0.05 µM

## CCn1cc(C(=O)Nc2ccc(F)cc2)c(=O)c2cc(F)c(N3CCN(Cc4ccccc4)CC3)cc21
[2]
  IC50: > 100 µM
[23]
  IC50: > 100 µM
[1]
  fold change (FC): 1.63

## CCn1cc(C(=O)NC2CCN(Cc3ccccc3)CC2)c(=O)c2cc(F)c(N3CCNCC3)cc21
[1]
  fold change (FC): 1.09
